Experimental data as given in patent publication US10144726B2, “Modulators of the p70S6 kinase for use in the treatment of brain disorders and triple-negative breast cancer” (SENTINEL ONCOLOGY LIMITED, priority 2015, dated 2018).

Legend:
p70S6K (h) = p70S6K (h) (Homo sapiens, UniProt P23443); test: Determination of p70S6 inhibitory activity (radiometric kinase assay); format: biochemical; settings: read-out: (a) p70S6K1 IC50
Protocol: The ability of compounds of the invention to inhibit P70S6 kinase was determined using the protocol below.
20 mM MOPS, 1 mM EDTA, 0.01% Brij-35, 5% Glycerol, 0.1% b-mercaptoethanol, 1 mg/mL BSA
In a final reaction volume of 25 μL, p70S6K (h) (5-10 mU) is incubated with 8 mM MOPS pH 7.0, 0.2 mM EDTA, 100 μM KKRNRTLTV, 10 mM Mg acetate and [γ-33P-ATP] (specific activity approx. 500 cpm/pmol, concentration as required). The reaction is initiated by the addition of the MgATP mix. After incubation for 40 minutes at room temperature, the reaction is stopped by the addition of 5 μL of a 3% phosphoric acid solution. 10 μL of the reaction mixture is then spotted onto a P30 filtermat and washed three times for 5 minutes in 75 mM phosphoric acid and once in methanol prior to drying and scintillation counting.

[1] = test system: phosphorylation of S6 Ser235/236 in MCF-7 cells; test: MCF-7 pS6 ELISA (phosphorylation of S6 Ser235/236); format: cell-based; settings: Homo sapiens, MCF7; S6 Ser235/236, 1% FBS, 2 h; read-out: (b) MCF-7 pS6 ELISA IC50
Protocol: The following assay provides IC50 values for inhibition of P70S6K activity in a whole cell assay by determining effects on the phosphorylation of S6^Ser235/236 in MCF-7 cells by ELISA.
The following protocol was used: • 1) MCF-7 cells were seeded in 96-well plates at a density of 7000 cells per well and allowed to adhere for 6 h in media containing 10% FBS. • 2) The full serum media was replaced and cells incubated overnight in media containing 1% FBS, prior to addition of test compounds. • 3) Test compounds were prepared from 10 mM DMSO stocks to give final concentration ranges as indicated on graphs. DMSO was constant at a final concentration of 1%. • 4) Test compounds were incubated with cells in duplicate for 2 h at 37° C/5% CO2 in a humidified atmosphere. • 5) The media was removed and cells were lysed by freeze-thawing in cell lysis buffer. • 6) Detection of phosphorylated S6Ser235/236 was then carried out using a PathScan ELISA kit (Cell Signaling Technology #7205). • 7) Lysates were diluted 1:1 with sample diluent before being applied to wells coated with an antibody against phosphorylated-S6 protein. • 8) The ELISA was then performed as stated in the manufacturers' instructions. • 9) The raw data were normalised to control values and analysed using a 4-parameter logistic equation in GraphPad Prism.

MCF-7 cells = test: MCF-7 proliferation assay (Alamar blue, 72 h); format: cell-based; settings: Homo sapiens, MCF7, 72 h; read-out: (c) MCF-7 proliferation IC50
Protocol: The following assay was used to determine the ability of test compounds to inhibit cell growth.
The following protocol was used: • 1) MCF-7 cells were seeded in 96-well plates at 5000 cells per well and allowed to adhere overnight prior to addition of compound or vehicle control. • 2) Test compounds were prepared from 10 mM DMSO stocks to give a final concentration range of 100 μM, 30 μM, 10 μM, 3 μM, 1 μM, 0.3 μM, 0.1 μM, 0.03 μM, 0.01 μM and vehicle control. The DMSO content was constant at 1%. • 3) Test compounds were incubated with the cells for 72 h at 37° C. 5% CO2 in a humidified atmosphere. • 4) Alamar blue 10% (v/v) was then added and incubated for a further 6 h, and fluorescent product detected using the BMG FLUOstar plate reader. • 5) Data were analysed using a 4-parameter logistic equation in GraphPad Prism.

[2] = test system: audiogenic seizures in FXS (Fmr1 KO) mice; test: Audiogenic seizure assay, in vivo model of Fragile X Syndrome; design: species or system FVB background; settings: 25 mg/kg QD × 7 PO
Source text: Seizures occur in conjunction with FXS and autism in up to one-quarter of children with these disorders (Berry-Kravis E (2002) Epilepsy in fragile X syndrome. Dev. Med. Child Neurol. 44(11):724-728). […] The audiogenic seizure assay (AGS) is a well documented mouse model of FXS (Audiogenic seizures susceptibility in transgenic mice with fragile X syndrome, Epilepsia. 2000 January; 41(1):19-23). In such a model it is possible to dose compounds to observe effects on susceptibility of the mice to audiogenic seizures. The following AGS experiment was set up to test the efficacy of compounds of this application:
Strain of FXS Mouse Used: FVB Background
Vehicle used: 10% DMSO/90% hydroxypropyl-β-cyclodextrin (20% w/v aqueous)
Animals were assessed in AGS following 7 consecutive days of dosing.
The experimental chamber consisted of a plastic cage of dimensions 25×25×47 cm in which a doorbell (Electrical bell Heath Zenith, model 172C-A) had been mounted on the cage roof.
Mice were taken from their housing room one by one and transferred into the experimental chamber and allowed to explore the novel environment (basal noise ˜65 dB) for a period of 30 seconds after which point the bell was rung (124 dB).
The resulting motor responses were classified using a scale modified from the one originally described by Jobe et al. (1973): no response (NR: pause or continuous exploration), wild running (WR), clonic seizure (CS), tonic seizure (TS), respiratory arrest and/or death (RA). In order to define the intensity of the behavioral response a seizure severity score was used (SSS) (Musumeci et al., 2000), consisting of a score assigned to each animal depending on its behavioral response (NR=0, WR=1, CS=2, TS=3, RA=4). To determine the SSS for a treatment group the scores of the individual mice are summed. The motor response rate is defined as the percentage of animals per group responding to the stimulus.

Sequence of p70S6K (h) (P23443 whole entry): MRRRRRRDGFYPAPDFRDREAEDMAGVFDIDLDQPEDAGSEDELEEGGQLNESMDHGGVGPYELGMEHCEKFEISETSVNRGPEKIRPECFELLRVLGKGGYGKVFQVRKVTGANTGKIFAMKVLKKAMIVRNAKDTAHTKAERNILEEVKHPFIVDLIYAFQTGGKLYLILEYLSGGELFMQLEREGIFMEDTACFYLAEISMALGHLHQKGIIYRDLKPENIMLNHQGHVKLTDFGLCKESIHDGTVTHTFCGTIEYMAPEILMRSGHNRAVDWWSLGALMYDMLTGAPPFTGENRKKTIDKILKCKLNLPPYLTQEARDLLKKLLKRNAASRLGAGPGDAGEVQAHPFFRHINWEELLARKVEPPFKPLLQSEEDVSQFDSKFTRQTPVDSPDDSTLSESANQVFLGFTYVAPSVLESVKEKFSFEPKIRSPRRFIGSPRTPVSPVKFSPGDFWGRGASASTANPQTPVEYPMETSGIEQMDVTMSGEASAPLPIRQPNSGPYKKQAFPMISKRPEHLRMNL

SMILES: C[C@@H](Nc1cnc2cc(-c3cn[nH]c3)ccc2n1)c1cccc(Cl)c1 [Example 15]
- IC50 (p70S6K (h)): 6 nM
- IC50 [1]: 500 nM
- IC50 (MCF-7 cells): 12000 nM
- CS (clonic seizure), number of animals [2]: 0
- NR (no response), number of animals [2]: 6
- RA (respiratory arrest and/or death), number of animals [2]: 0
- SSS (seizure severity score, summed for the group) [2]: 2
- TS (tonic seizure), number of animals [2]: 0
- WR (wild running), number of animals [2]: 2
- Incidence of audiogenic seizures and severity of response ([2]; vs vehicle, p<0.01 by Fisher's test): reduced
